# Results as given in patent publication US11891623B2, “Generation of neural stem cells from human trophoblast stem cells” (Accelerated BioSciences Corp., priority 2010, dated 2024).
# Assays:
# [1] = test system: CaMKII; assay: CaMKII inhibitor effect on eIF4B expression (Western blots); format: cell-based, human; details: KN93 1 μM, 2 hr
# Description: FIGS. 21a-21n illustrate activation of Gαq/11 signaling pathway: (21a) illustrates expressions of Gαq/11 pathway-related components after RA treatment (10 μM) over time by Western blots; (21b) illustrates real-time live cell imaging microscopy (Cell-R system, Olympus, Tokyo) in hTS cells which were cultured in the calcium-free medium and pre-loaded with Fluo4 (1 μM) in BSS buffer 20 min before RA treatment. (a) The RA-induced depletion of intracellular calcium was rescued by adding CaCl2 (2 mM) with a SOCE pattern. […] (c) After depletion of ER calcium, KCl (60 mM) enabled to activate L-type calcium channels.
# The transient CaMKII bound and activated eukaryotic initiation factor 4B (eIF4B) (FIG. 21c) to initiate mRNA translation machinery via a cap-independent mechanism.
# [2] = test system: AhR; assay: TIRF microscopy of GFP-tagged AhR at the plasma membrane in Huh-7 cells; format: cell-based, human; details: BBP 1 μM
# Text: Immunofluorescence studies are considered important for the dynamic study of signal transduction through their ability to capture snapshots of molecular changes in the cell. Human hepatic Huh-7 cancer cells were pre-transfected with pGFP-C1-AhR by using LT1 transfection reagent (Minis Bio LLC, WI) and total internal reflection fluorescence microscopy to selectively observe the molecular events in the cytoplasmic region immediately beneath the plasma membrane. When BBP was introduced, a rapid but transient recruitment and translocation of the GFP-tagged AhR occurred at the subcellular membrane regions, showing a fast elevation and peaking in 115 seconds followed by a gradual decrease in AhR that occurred over a few minutes (FIG. 14a). This fast, dynamic movement of the memAhR at the subcellular membrane is reminiscent of the notion of soft-wired signal transduction.
# Huh-7 cells were pre-transfected with pGFP-C1-AhR (a gift of H. Li) by using LT1 transfection reagent (Minis Bio LLC, Madison, WI) for 24 h. For TIRF microscopy, cells were cultured in serum-free medium on cover-slip overnight followed by stimulation by BBP (1 μM, Sigma). The dynamic activities of GFP-tagged AhR at the cell membrane were observed and analyzed by using Zeiss TIRF microscope with Axio Vision Rel. 4.8 software.
# [3] = test system: Huh-7 cells; assay: BBP-induced signaling in Huh-7 cells (RT-PCR, Western blot, immunofluorescence); format: cell-based, human
# Description: Huh-7 cells (3×10^5) were seeded into a 6-well dish and incubated for 24 h. Cells cultured serum-free medium overnight were treated with BBP (1 μM) for various time intervals. After BBP stimulation, cells were washed twice with PBS. Total RNAs were extracted by TRIzol methods (Invitrogen). RNA (2 μg) was used to synthesize cDNA by Reverse Transcription System (Promega). The c-DNAs were amplified by the specific primers. The primer pairs were designed as follows: AhR, forward 5′-TACTCTGCCGCCCAAACTGG-3′ (SEQ ID NO:49), reverse 5′-GCTCTGCAACCTCCGATTCC-3′ (SEQ ID NO:50); β-actin, forward 5′-CTC GCT GTC CAC CTT CCA-3′ (SEQ ID NO:51), reverse 5′-GCT GTC ACC TTC ACC GTTC-3′ (SEQ ID NO:52). PCR conditions were set at 95° C. for 5 min and 95° C. for 30 sec, 54° C. for 30 sec, 72° C. for 1 min followed by 72° C. for 10 min (36 cycles). The products were separated by 2% agarose gels and visualized by ethidium bromide.
# Huh-7 cells (1×10^6) were seeded into 10 cm dish and cultured overnight. The culture medium was changed to serum-free medium for another night. Cells were treated with BBP (1 μM) for various time intervals. […] Cells were then washed twice with ice-cold PBS and lysed by RIPA lysis buffer (Minipore). Protein concentration was measured by BCA protein assay kit (Thermo). Equal amounts of protein (30 μg protein) were resolved by 8% SDS-PAGE, transferred onto PVDF membrane, and blocked with 5% non-fat dry milk for 1 h at room temperature. After blocking, the membrane was incubated with the primary antibodies including AhR (1:1000), Cox-2 (1:1000), Gαq/11 (1:100), Gβ (1:100), β-actin (1:5000), p44/42 MAP kinase (1:1000) or phospho-p44/42 MAP kinase (1:1000) overnight at 4° C. Cells were washed three times with PBST and then incubated with HRP conjugated secondary antibodies for 1 h at room temperature. After washing, the blot was visualized using an enhanced chemiluminescence kit (ECL) (Amersham).
# Cells with or without transfection by AhR siRNA were cultured and treated with BBP (1 μM) for 5 and 15 min each. After treatment with primary and secondary antibodies for AhR and Gαq/11, cells were subjected to confocal immunofluorescence microscopy to analyze the dynamic movement in the cell compartments.
# [4] = test system: intracellular calcium in Huh-7 cells; assay: Real-time live cell calcium imaging in BBP-treated Huh-7 cells; format: cell-based, human
# Description: Cells were pre-treated with Fluo-4 (1 μM), a Ca^2+-specific dye, in BSS buffer at 37° C. for 20 min before treatment with BBP (1 μM). Measurements of relative intracellular calcium intensity were performed by real-time cell imaging microscopy and analyzed by Cell-R software system (Olympus).
# [5] = test system: hTS cells; assay: RA-induced differentiation of hTS cells; format: cell-based, human
# Description: In another embodiment, a similar ratio in distribution of mixed RA-induced neural progenitors results over 1 to 5-day RA-induction periods. In another embodiment, the cell differentiation becomes undefined trophoblast giant cells over a 7-day RA treatment.
# Cells were cultured in conditioned α-MEM containing 20% FBS, 1% penicillin-streptomycin, and 10 μg/ml bFGF (CytoLab Ltd, Rehovot, Israel) at 37° C. in 5% CO2. The medium was refreshed every 3 days in general. After 5 passages of culture, cell differentiations into a variety of specific cell phenotypes were performed by various strategies as shown in the Table in FIG. 12. For osteogenic differentiation, cytochemical mineral matrix was analyzed using an Alizarin red S assay (Sigma-Aldrich, St. Louis, MO) to detect the calcium mineral content. To identify the calcium deposits, cells were fixed and incubated with 2% silver nitrate solution (w/v) for 10 min in dark followed by thorough wash with de-ionized water and exposed under bright light for 15 min. Cells were treated with […] to detect alkaline phosphatase activity using a commercial kit (Sigma-Aldrich, St. Louis, MO). Chondrogenic differentiation was confirmed using Alcian blue staining (Sigma-Aldrich, St. Louis, MO) at an acidic pH level. […]
# [6] = test system: hTS cells; assay: RA-induced protein/mRNA expression over time in hTS cells (Western blots, RT-PCR, flow cytometry); format: cell-based, human
# Description: For RT-PCR, total RNA from 10^5-10^6 cells was extracted by using TRIZOL reagent (Invitrogen) and mRNA expression by using a Ready-To-Go RT-PCR Beads kit (Amersham Biosciences, Buckinghamshire, UK). Briefly, the reaction products were resolved on 1.5% agarose gel and visualized with ethidium bromide. β-actin or β-2 microglobulin was used as a positive control. All experiments were performed in triplicate. For qPCR, gene expression was measured with the iQ5 Real-Time PCR Detection System (Bio-Rad Laboratories) and analyzed with Bio-Rad iQ5 Optical System Software, version 2.0 (Bio-Rad Laboratories). Relative mRNA levels were calculated using the comparative Ct method (Bio-Rad, instruction manual) and presented as a ratio to biological controls. All primer pairs were confirmed to approximately double the amount of product within one cycle and to yield a single product of the predicted size.
# Cells were seeded into 10 cm dish with the serum-free medium for overnight and treated with or without RA (10 μM) for various time intervals as indicated. After stimulation, cells were washed twice with ice-cold PBS and lysed by RIPA lysis buffer (Minipore). Protein concentration was determined by BCA protein assay kit (Thermo). Equal amounts of protein (30 μg) were resolved by 8% SDS-PAGE, transferred onto PVDF membrane and blocked with 5% non-fat dry milk for 1 h at room temperature. After blocking, the membrane was incubated with primary antibodies for 4 h at 4° C. Cells were washed three times with PBST and then incubated with HRP conjugated secondary antibodies for 1 h at room temperature. After washing six times with PBST buffer, the membrane was incubated with a chemiluminescent substrate (GE Healthcare) for 1 min. Specific bands were visualized using an enhanced chemiluminescence kit (ECL) (Amersham).
# hTS cells obtained from the preimplantation embryos in women with early tubal ectopic pregnancy were described previously. Adherent hTS cells were cultured in conditioned α-MEM containing 10 μg/ml bFGF (JRH, Biosciences, San Jose, CA), 10% FBS, and 1% penicillin-streptomycin at 37° C. in 5% CO2. Cells were treated by RA (10 μM) for various time intervals depending on the experiments.
# [7] = test system: intracellular calcium in hTS cells; assay: Real-time live cell calcium imaging in RA-treated hTS cells; format: cell-based, human
# Description: FIGS. 21a-21n illustrate activation of Gαq/11 signaling pathway: (21a) illustrates expressions of Gαq/11 pathway-related components after RA treatment (10 μM) over time by Western blots; (21b) illustrates real-time live cell imaging microscopy (Cell-R system, Olympus, Tokyo) in hTS cells which were cultured in the calcium-free medium and pre-loaded with Fluo4 (1 μM) in BSS buffer 20 min before RA treatment. […] (c) After depletion of ER calcium, KCl (60 mM) enabled to activate L-type calcium channels.
# [8] = test system: protein kinase C (PKC) pathway; details: cited from earlier work
# [9] = test system: hTS cells; assay: RA effect on Nanog, Oct4, Sox2, Cdx2 expression in hTS cells (flow cytometry)
# [10] = test system: IP3R; details: pretreatment with 2-APB
smiles,measurement,setting,value
COc1ccc(S(=O)(=O)N(CCO)c2ccccc2CN(C)C/C=C/c2ccc(Cl)cc2)cc1 [KN93],eIF4B expression,[1],inhibited
"CCCCOC(=O)c1ccccc1C(=O)OCc1ccccc1 [BBP, Benzyl butyl phthalate]",time to peak of GFP-tagged AhR recruitment at subcellular membrane,[2],115 s
same,time of COX-2 production,[3]; BBP 1 μM,15 min
same,time of induction of AhR mRNA expression,"[3]; BBP 1 μM, RT-PCR",5 min
same,time of peak AhR mRNA expression,"[3]; BBP 1 μM, RT-PCR",15 min
same,time of Gαq/11 and Gβ production,"[3]; BBP 1 μM, Western blot",30 min
same,time of elevation in AhR production,"[3]; BBP 1 μM, Western blot",15 min
same,ARNT expression,"[3]; BBP 1 μM, overnight",significantly inhibited
same,time of ERK1/2 phosphorylation,"[3]; BBP 1 μM, dephosphorylated at 30 min",15 min
same,intracellular calcium response,"[4]; BBP 1 μM, calcium free medium",release of intracellular calcium
"CC1=C(/C=C/C(C)=C/C=C/C(C)=C/C(=O)O)C(C)(C)CCC1 [RA, all-trans retinoic acid]",differentiation of hTS cells into neural cell phenotypes,"[5]; RA 10 μM, 1 to 7 days",induces hTS cells differentiation into a variety of phenotypical neural cells
same,giant cell formation,[5]; treatment with all-trans retinoic acid,resulted in a formation of giant cells
same,time of peak c-Src mRNA expression,"[6]; RA 10 μM, RT-PCR",15 min
same,time of transient elevation of RXRα mRNA and RARβ mRNA,"[6]; RA 10 μM, RT-PCR",15 min
same,time of production of c-Src protein,"[6]; RA 10 μM, Western blot",1 h
same,Wnt2B and FRAT1 expression,"[6]; RA 4 hr and 24 hr incubation, Western blots",significantly upregulated
same,GSK3β activity state,"[6]; RA 4 hr vs overnight, flow cytometry",initially activated in 4 hr but transited into inhibitory later
same,Fzd6 mRNA expression,"[6]; RA, RT-PCR",overexpression
same,calcineurin production,"[6]; RA, Western blot",induced production
same,time of CaMKII activation,"[6]; RA, Western blot",1 to 2 h
same,time of HDAC6 elevation,"[6]; RA, Western blot",2 h
same,time of Nanog production,"[6]; RA, Western blot",4 h
same,time of RARβ production,"[6]; RA, Western blots",4 h
same,time of c-Src expression,"[6]; RA, Western blots",5 min
same,time of production of Gαq/11 and Gβ,"[6]; RA, Western blots",30 min
same,time of transient Akt3 activation,"[6]; RA, Western blots",1 h
same,β-catenin activation,"[6]; RA, between 30 min and 24 hr, Western blots",significantly activated
same,time of mTOR phosphorylation at serine 2448,"[6]; RA, disappeared after 24 hr",4 h
same,time of peak eIF4B production,"[6]; RA, fading away at 24 hr",4 h
same,intracellular Ca2+ response,"[7]; RA, calcium-free medium, Fluo4",transiently intracellular Ca^2+ release
same,time of translocation of PKC-γ,[8],≤ 5 min
same,increase in intracellular diacylglycerol (DG),"[8]; transient, at 2 min",1.3 fold
same,"effect on expression of Nanog, Oct4, Sox2, Cdx2",[9]; RA one day,"promoted expressions of Nanog, Oct4 and Sox2 but not Cdx2"
same,Nanog expression,"[9]; RA-induced cells (10 μM, 1 day)",26.9%
"NCCOB(c1ccccc1)c1ccccc1 [2-APB, 2-aminoethoxydiphenyl borate]",RA-induced ER calcium release,"[7]; 2-APB, dose-dependent",inhibited
same,BBP-induced COX-2 production,[3],blocked
same,"Calcineurin, NFAT1, and MEF2A expression",[10],inhibited
same,BBP-elicited intracellular calcium levels,[4]; 2-APB at various concentrations,dose-dependently inhibit
